The text below walks through data of patent publication US20150005307A1, “Drug Delivery Technology” (LondonPharma Ltd., priority 2011, published 2015).

A short description of the data set: Solubility of PDE5 inhibitors in formulation carriers and co-solvents. The note with it: for solubility in water: result in words. An excerpt:
In the absence of ethanol an alternative preservative could be used, though methyl parabens and potassium sorbate precipitated out of solution.
Suitable sweeteners were sucralose (0.05%) and suitable flavourings were strawberry flavour 501094 (0.5%) and orange juice flavour 506304 (0.5%).
Cremophor EL (macrogol glycerol ricinoleate Ph Eur) was identified as a component that was able to maintain menthol, peppermint oil, aniseed and lemon oil in solution. These flavours were firstly mixed at 10% w/w with Cremophor EL, and the resultant combination then mixed with water (10% w/w in purified water). […] Note that vanillin also degraded in Cremophor EL, rendering it unusable. […] The action of Cremophor EL here is that of a water-miscible oil-based solvent. Sildenafil and vardenafil remained in solution at a concentration of at least 60 mg/ml and 30 mg/ml, respectively, in the presence of 10% Cremophor EL.

The mark [1] stands for this setting: Miglyol 810 (medium-chain triglycerides Ph Eur), with or without ethanol.

Where a name gives a salt, the structure may show the parent alone.

For orientation: solubility means how much of the substance goes into solution per volume.

For the compound `CN1CC(=O)N2[C@H](c3ccc4c(c3)OCO4)c3[nH]c4ccccc4c3C[C@@H]2C1=O` [Tadalafil (base), Tadalafil], under setting [1], the “solubility in Miglyol 810” value was “insoluble”. Besides, under “PEG, even using ethanol as a co-solvent”, the “solubility in other potential solvents e.g. PEG” value is given as “insoluble”. Moreover, the solubility in water result (water) was “insoluble”.
Consider `CCCc1nc(C)c2c(=O)[nH]c(-c3cc(S(=O)(=O)N4CCN(CC)CC4)ccc3OCC)nn12` [Vardenafil (hydrochloride trihydrate), vardenafil hydrochloride trihydrate], for which the “solubility in Miglyol 810” value is recorded as “insoluble”. Moreover, the solubility (water) was not below 50 mg/mL.
For `CCCc1nn(C)c2c(=O)[nH]c(-c3cc(S(=O)(=O)N4CCN(C)CC4)ccc3OCC)nc12` [sildenafil (base), sildenafil], under setting [1], the “solubility in Miglyol 810” value is on record as “Neither sildenafil (base) nor sildenafil citrate were found to be soluble”. Further, the solubility in water result (water) is recorded as “Neither sildenafil (base) nor sildenafil citrate were found to be soluble”.
